In patent publication US12599672B2, “KRAS proteolysis targeting chimeras” (PAQ Therapeutics Inc., priority 2023, dated 2026):

Assays:
KRAS G12D = target: T1, KRAS G12D (Homo sapiens, UniProt P01116, G12D); assay: KRAS G12D HiBit assay; format: cell-based; details: AsPc-1-KRAS (G12D)-HiBit-KI cell, compound treatment for 24 hours, class symbols; for DC50: absolute DC50
T1 construct: AsPc-1-KRAS (G12D)-HiBit-KI cell (Pharmaron); host or cells: AsPc-1-KRAS (G12D)-HiBit-KI cells (HiBiT knock-in at the endogenous KRAS locus)
Procedure: Day 1. […] Allowed cells to reach approximately 80% confluence before splitting. Rinsed cultivated cells in T-75 flasks with 5 mL PBS (Solarbio, P1020-500). […] Inactivated trypsin by adding excessive serum containing medium. Harvested the cells from flask into cell culture medium and counted the cell number.
Day 2. Test compounds were dissolved at 0.3 mM in DMSO (Solarbio, D8371) as stock solution. […] Performed 3-fold, 10-points dilution via transferring 15 μL compound into 30 μL DMSO by using TECAN liquid handler (TECAN, Freedom EVO200).
Day 3. After compound treatment for 24 hours, removed the plate from incubators and equilibrated at room temperature for 15 minutes. Prepared the HiBit reagent (Promega, N3040) by mixing 10 mL of Nano-Glo®-HiBiT Lytic Buffer with 200 μL of Nano-Glo®-HiBiT Lytic Substrate and 100 μL of LgBiT Protein. Added 20 μL of HiBit reagent into each well of the cell plate and spun the plates at room temperature at 1,000 RPM for 1 minute.
The inhibition activity was calculated using the following formula:
(§1) [formula] where HC (high control) is obtained from cells treated with 0.1% DMSO only.

KRAS G12V = target: T2, KRAS G12V (Homo sapiens, UniProt P01116, G12V); assay: KRAS G12V HiBit assay; format: cell-based; details: SW620-KRAS (G12V)-HiBit-KI cells, compound treatment for 24 hours, class symbols
T2 construct: SW620-KRAS (G12V)-HiBit-KI cell (Pharmaron); host or cells: SW620-KRAS (G12V)-HiBit-KI cells (HiBiT knock-in at the endogenous KRAS locus)
Procedure: Day 1. […] Rinsed cultivated cells in T-75 flasks with 5 mL PBS (Solarbio, P1020-500). […] Inactivated trypsin by adding excessive serum containing medium. Harvested the cells from flask into cell culture medium and counted the cell number.
Day 2. Test compounds were dissolved at 0.3 mM in DMSO (Solarbio, D8371) as stock solution. […] Performed 3-fold, 10-points dilution via transferring 15 μL compound into 30 μL DMSO by using TECAN liquid handler (TECAN, Freedom EVO200). […] After compound treatment for 24 hours, the plate was removed from incubators and equilibrated at room temperature for 15 minutes. Prepare the HiBit reagent (Promega, N3040) by mixing 10 mL of Nano-Glo®-HiBiT Lytic Buffer with 200 μL of Nano-Glo®-HiBiT Lytic Substrate and 100 μL of LgBiT Protein. Added 20 μL of HiBit reagent into each well of the cell plate and spun the plates at room temperature at 1,000 RPM for 1 minute.
The degradation activity was calculated using the following formula:
as §1

T1 sequence (P01116 1-188 isoform P01116-2 G12D): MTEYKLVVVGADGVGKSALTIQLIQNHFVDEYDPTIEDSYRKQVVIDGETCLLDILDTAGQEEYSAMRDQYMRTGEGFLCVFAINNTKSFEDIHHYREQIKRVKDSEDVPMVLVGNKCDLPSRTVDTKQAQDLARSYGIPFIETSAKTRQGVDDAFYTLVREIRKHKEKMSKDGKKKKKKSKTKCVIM
T2 sequence (P01116 1-188 isoform P01116-2 G12V): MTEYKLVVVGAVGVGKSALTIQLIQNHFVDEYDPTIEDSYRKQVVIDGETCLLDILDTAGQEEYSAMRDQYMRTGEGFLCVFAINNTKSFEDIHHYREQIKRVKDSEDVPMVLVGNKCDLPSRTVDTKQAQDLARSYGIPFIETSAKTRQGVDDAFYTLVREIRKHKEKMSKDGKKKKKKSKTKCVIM

SMILES | DC50 (KRAS G12D) [nM] | DC50 (KRAS G12V) [nM] | Dmax (KRAS G12D) [%]
C#Cc1c(F)ccc2cccc(-c3ncc4c(N5CCC[C@@](C)(O)C5)nc(OCC5(CN6CCN(CC7CCN(c8cccc9c8n(C)c(=O)n9C8CCC(=O)NC8=O)CC7)CC6)CC5)nc4c3F)c12 (some centres unmarked) [Compound 78] | > 300 | > 100 | 
C[C@H]1CN(CCOCCOc2ccc3c(c2)n(C)c(=O)n3C2CCC(=O)NC2=O)CCCN1c1nccc(-c2noc([C@@]3(C)CCCc4sc(N)c(C#N)c43)n2)n1 (stereo partly drawn) [Compound 209, (4S)-2-amino-4-(3-(2-((2S)-4-(2-(2-((1-(2,6-dioxopiperidin-3-yl)-3-methyl-2-oxo-2,3-dihydro-1H-benzo[d]imidazol-5-yl)oxy)ethoxy)ethyl)-2-methyl-1,4-diazepan-1-yl)pyrimidin-4-yl)-1,2,4-oxadiazol-5-yl)-4-methyl-4,5,6,7-tetrahydrobenzo[b]thiophene-3-carbonitrile] | > 300 | > 100 | 15 to 50
CCc1c(F)ccc2cc(O)cc(-c3ncc4c(N5CCC[C@@](C)(O)C5)nc(OC[C@@]56CCCN5[C@H](COC(=O)N5CC7C(CN8CCC(c9ccc%10c(c9)n(C)c(=O)n%10C9CCC(=O)NC9=O)CC8)C7C5)CC6)nc4c3F)c12 (stereo partly drawn) [Compound 401, ((3S,7aS)-7a-(((7-(8-ethyl-7-fluoro-3-hydroxynaphthalen-1-yl)-8-fluoro-4-((R)-3-hydroxy-3-methylpiperidin-1-yl)pyrido[4,3-d]pyrimidin-2-yl)oxy)methyl)hexahydro-1H-pyrrolizin-3-yl)methyl 6-((4-(1-(2,6-dioxopiperidin-3-yl)-3-methyl-2-oxo-2,3-dihydro-1H-benzo[d]imidazol-5-yl)piperidin-1-yl)methyl)-3-azabicyclo[3.1.0]hexane-3-carboxylate] | < 100 | 10 to 100 | 
C#Cc1c(F)ccc2cc(O)cc(-c3ncc4c(N5CCC[C@@](C)(O)C5)nc(OCC5(CN6CCC(CN7CCN(c8ccc9c(c8)n(C)c(=O)n9C8CCC(=O)NC8=O)CC7)CC6)CC5)nc4c3F)c12 (some centres unmarked) [Compound 25] | < 100 | < 10 | 
CCc1c(F)ccc2cc(O)cc(-c3ncc4c(N5CCC[C@@](C)(O)C5)nc(OC[C@@]56CCCN5[C@H](CNC(=O)c5ccc(CN7CCC(c8ccc9c(c8)n(C)c(=O)n9C8CCC(=O)NC8=O)CC7)cc5F)CC6)nc4c3F)c12 (stereo partly drawn) [Compound 494, 4-((4-(1-(2,6-dioxopiperidin-3-yl)-3-methyl-2-oxo-2,3-dihydro-1H-benzo[d]imidazol-5-yl)piperidin-1-yl)methyl)-N-(((3S,7aS)-7a-(((7-(8-ethyl-7-fluoro-3-hydroxynaphthalen-1-yl)-8-fluoro-4-((R)-3-hydroxy-3-methylpiperidin-1-yl)pyrido[4,3-d]pyrimidin-2-yl)oxy)methyl)hexahydro-1H-pyrrolizin-3-yl)methyl)-2-fluorobenzamide] | < 100 | 10 to 100 | 
CCc1c(F)ccc2cc(O)cc(-c3ncc4c(N5CCC[C@@](C)(O)C5)nc(OC[C@@]56CCCN5[C@H](COC(=O)N5CCC7(CC5)CC(N5CCC(c8ccc9c(c8)n(C)c(=O)n9C8CCC(=O)N(C)C8=O)CC5)C7)CC6)nc4c3F)c12 (stereo partly drawn) [Compound 491, ((3S,7aS)-7a-(((7-(8-ethyl-7-fluoro-3-hydroxynaphthalen-1-yl)-8-fluoro-4-((R)-3-hydroxy-3-methylpiperidin-1-yl)pyrido[4,3-d]pyrimidin-2-yl)oxy)methyl)hexahydro-1H-pyrrolizin-3-yl)methyl 2-(4-(3-methyl-1-(1-methyl-2,6-dioxopiperidin-3-yl)-2-oxo-2,3-dihydro-1H-benzo[d]imidazol-5-yl)piperidin-1-yl)-7-azaspiro[3.5]nonane-7-carboxylate] |  | > 100 | 
C[C@H]1CN(CCOCCOCCOc2cccc3c2n(C)c(=O)n3C2CCC(=O)NC2=O)CCCN1c1nccc(-c2noc([C@@]3(C)CCCc4sc(N)c(C#N)c43)n2)n1 (some centres unmarked) [Compound 220] |  | > 100 | 
C[C@H]1CN(CCOCCOCCOc2ccc3c(c2)n(C)c(=O)n3C2CCC(=O)NC2=O)CCCN1c1nccc(-c2noc([C@]3(C)CCCc4sc(N)c(C#N)c43)n2)n1 (some centres unmarked) [Compound 217] |  | > 100 | 
C[C@H]1CN(CCOCCOc2ccc3c(c2)n(C)c(=O)n3C2CCC(=O)NC2=O)CCCN1c1nccc(-c2noc([C@]3(C)CCCc4sc(N)c(C#N)c43)n2)n1 (some centres unmarked) [Compound 216] |  | > 100 | 
C[C@H]1CN(CCOCCOCCOCCOc2ccc3c(c2)n(C)c(=O)n3C2CCC(=O)NC2=O)CCCN1c1nccc(-c2noc([C@@]3(C)CCCc4sc(N)c(C#N)c43)n2)n1 (stereo partly drawn) [Compound 200, (4S)-2-amino-4-(3-(2-((2S)-4-(2-(2-(2-(2-((1-(2,6-dioxopiperidin-3-yl)-3-methyl-2-oxo-2,3-dihydro-1H-benzo[d]imidazol-5-yl)oxy)ethoxy)ethoxy)ethoxy)ethyl)-2-methyl-1,4-diazepan-1-yl)pyrimidin-4-yl)-1,2,4-oxadiazol-5-yl)-4-methyl-4,5,6,7-tetrahydrobenzo[b]thiophene-3-carbonitrile] |  | > 100 | 
C[C@H]1CN(CCOCCOc2cccc3c2n(C)c(=O)n3C2CCC(=O)NC2=O)CCCN1c1nccc(-c2noc([C@@]3(C)CCCc4sc(N)c(C#N)c43)n2)n1 (some centres unmarked) [Compound 221] |  | > 100 | 
C[C@H]1CN(CCOCCOCCOc2ccc3c(c2)n(C)c(=O)n3C2CCC(=O)NC2=O)CCCN1c1nccc(-c2noc([C@@]3(C)CCCc4sc(N)c(C#N)c43)n2)n1 (stereo partly drawn) [Compound 202, (4S)-2-amino-4-(3-{2-[(2S)-4-{2-[2-(2-{[1-(2,6-dioxopiperidin-3-yl)-3-methyl-2-oxo-1,3-benzodiazol-5-yl]oxy}ethoxy)ethoxy]ethyl}-2-methyl-1,4-diazepan-1-yl]pyrimidin-4-yl}-1,2,4-oxadiazol-5-yl)-4-methyl-6,7-dihydro-5H-1-benzothiophene-3-carbonitrile] |  | > 100 | 
C[C@H]1CN(CCOCCOCCOCCOc2cccc3c2n(C)c(=O)n3C2CCC(=O)NC2=O)CCCN1c1nccc(-c2noc([C@@]3(C)CCCc4sc(N)c(C#N)c43)n2)n1 (some centres unmarked) [Compound 219] |  | > 100 | 
CCc1c(F)ccc2cc(O)cc(-c3ncc4c(N5CCC[C@@](C)(O)C5)nc(OC[C@@]56CCCN5[C@H](COC(=O)NCCOCCOc5ccc7c(c5)n(C)c(=O)n7C5CCC(=O)NC5=O)CC6)nc4c3F)c12 (stereo partly drawn) [Compound 112, ((3S,7aS)-7a-(((7-(8-ethyl-7-fluoro-3-hydroxynaphthalen-1-yl)-8-fluoro-4-((R)-3-hydroxy-3-methylpiperidin-1-yl)pyrido[4,3-d]pyrimidin-2-yl)oxy)methyl)hexahydro-1H-pyrrolizin-3-yl)methyl (2-(2-((1-(2,6-dioxopiperidin-3-yl)-3-methyl-2-oxo-2,3-dihydro-1H-benzo[d]imidazol-5-yl)oxy)ethoxy)ethyl) carbamate] | > 300 |  | 
C#Cc1c(F)ccc2cccc(-c3ncc4c(N5CCC[C@@](C)(O)C5)nc(OC[C@@]56CCCN5[C@H](COC(=O)N5CCC(CN7CCC(c8ccc9c(c8)n(C8CCC(=O)NC8=O)c(=O)n9C)CC7)CC5)CC6)nc4c3F)c12 (some centres unmarked) [Compound 136] | > 300 |  | 
C#Cc1c(F)ccc2cccc(-c3ncc4c(N5CCC[C@@](C)(O)C5)nc(OCC5(CN6CCC7(CC6)CC(N6CCC(c8ccc9c(C%10CCC(=O)NC%10=O)nn(C)c9c8)CC6)C7)CC5)nc4c3F)c12 (some centres unmarked) [Compound 35] | > 300 |  | 
C#Cc1c(F)ccc2cc(O)cc(-c3ncc4c(N5CCC[C@@](C)(O)C5)nc(OC[C@@]56CCCN5[C@H](COC(=O)N5CCC(N7CCC(c8cccc9c8n(C)c(=O)n9C8CCC(=O)NC8=O)CC7)CC5)CC6)nc4c3F)c12 (some centres unmarked) [Compound 148] |  | > 100 | 
